# Data published in paper PMC4747407 (Oncotarget, 2015).
# “Also recorded” adds a separate entry of the source.
# Columns and labels:
# TNKS1/2 = TNKS1/2 inhibition, summary over the enzyme assays; type: biochemical, human; details: range over the assays used
# Description: Samples were analyzed via phosphorimaging.
# [1] = system: DNA repair mutant DT40 cell lines; assay: Proliferation assay in panel of isogenic DNA repair mutant DT40 cell lines (XTT); type: cell-based, avian
# [2] = system: B16-F10 mouse melanoma isografts; assay: B16-F10 mouse melanoma isograft model, combination with TMZ; type: in vivo
# Description: (§1) All studies were performed according to IACUC approved protocols. The general health of mice was monitored daily.
# TMZ combination in B16-F10 isograft model: female C57BL/6 mice were inoculated subcutaneously with B16-F10 cells (2 × 10^5). Following randomization by body weight, drug treatment was initiated 1 day post-inoculation. […] TMZ was administered daily on days 1 to 5 at 50 mg/kg as a single agent or in combination. […] The control group was treated with vehicle (0.5% methyl cellulose in water). E7449 or vehicle was administered first and when dosing of all animals was complete TMZ was administered to animals receiving the combination.
# [3] = system: MX-1 human breast cancer xenografts; type: in vivo
# Description: (§2) All studies were performed according to IACUC approved protocols. The general health of mice was monitored daily. Tumor volume was determined by caliper measurements (mm), using the formula (l x w^2)/2 = mm^3, where l and w refer to the larger and smaller perpendicular dimensions collected at each measurement. Tumor dimensions were recorded twice per week starting when tumors reached an approximate size of 100 to 150 mm^3. Body weights were recorded twice per week and relative body weight was calculated as follows: Relative body weight = (body weight on day of measurement/body weight on first day of treatment).
# Carboplatin combination in MX-1 orthotopic xenografts: female nude mice were implanted with MX-1 cells (0.5 × 10^6) in the thoracic mammary fat pad. Treatment started on day 3 when the average tumor size was approximately 50 mm^3. Carboplatin was administered as a single intravenous dose at 60 mg/kg on day 3 or 4.
# [4] = system: MDA-MB-436 human breast cancer xenografts; assay: MDA-MB-436 subcutaneous xenograft model, single agent; type: in vivo, mouse
# Description: as §1
# [5] = system: PARP activity in MDA-MB-436 tumor tissue; assay: Pharmacodynamic PARP inhibition (PAR ELISA) in MDA-MB-436 tumor lysates; type: in vivo, mouse
# Description: (§3) Control group (10 mice) were treated with vehicle (0.5% methyl cellulose in water). Mice were euthanized and tumors were harvested at 1, 6, 12, 24 and 36 hours post treatment (5 mice per treatment per time point). Individual tumors were removed and flash frozen in liquid nitrogen for PAR analysis. PARP inhibition was also evaluated in tumors from NCI-H460 human lung cancer subcutaneous xenografts. Control group animals (24 mice) were treated with vehicle (0.5% methyl cellulose). […] Mice were euthanized and tumors were harvested at 0.25, 1, 6, 12, 24 and 36 hours post-treatment. PAR levels were determined by ELISA using the procedure provided by Trevigen and comparing to a PAR standard curve. Protein concentration of tumor lysates was determined using the BCA assay (Thermo Scientific). Results were converted from pg PAR/assay well to ng PAR/mg protein. Data was pooled from multiple experiments. The percent of control for each time point was calculated by using an average of all control replicates from that experiment.
# [6] = system: PARP activity in NCI-H460 tumor tissue; assay: Pharmacodynamic PARP inhibition (PAR ELISA) in NCI-H460 tumors; type: in vivo, mouse
# Description: as §3
# DLD-1 cells = assay: Western blot of Wnt/β-catenin pathway proteins in DLD-1 cells; type: cell-based, human; details: 24 h
# Description: SW480, DLD-1 (Wnt-dependent) or RKO (Wnt-independent) cells were plated in 6-well plates and incubated overnight. Cells were treated with E7449, olaparib or XAV939 and incubated for various time periods prior to processing by SDS PAGE and western blot analysis. […] Following binding of appropriate secondary antibodies labeled with IRDye® (LI-COR), image analysis was performed with Image Studio software for the LI-COR Odyssey system (version 2.1.10).
# SW480 cells = assay: Gene expression profiling of Wnt-related genes (TLDA qPCR) in SW480 cells; type: cell-based, human; details: 30 μmol/L, 72 h
# Description: (§4) Gene expression profiling was performed using a custom designed TaqMan® low density array (TLDA). Total RNA was isolated from cell lines using RNeasy Mini Kit (Qiagen) and from xenograft tumor FFPE tissue using RecoverAll Total Nucleic Acid Isolation (Ambion). Human and mouse, real-time qPCR TLDAs (384-well micro fluidic card) were designed with genes selected based on their involvement in Wnt signalling (see supplementary Tables 2 and 3 for lists of genes on TLDAs). cDNA was generated from total RNA using High Capacity cDNA Reverse Transcription kit (Life Technologies) or SuperScript® VILO™ Master Mix (Life Technologies). 100 ng cDNA was combined with TaqMan® Gene Expression Master Mix (Life Technologies) for the cell lines and TaqMan® Advanced FAST Master Mix (Life Technologies) for the xenograft tissue for each port (in duplicate). TLDAs were run based on recommended cycling times for each master mix. Ct values were calculated and imported into GeneData Analyst for further analysis. To calculate the ΔCts, gene expression was normalized to several housekeeping genes. Relative fold change was calculated by comparison to the DMSO or vehicle-treated controls for each sample. A student's t-test was used to calculate P-values and hierarchical clustering used Manhattan distance and complete linkage plotting of selected significant genes to generate heat maps.
# [7] = system: Wnt1 (int-1) mammary tumors; assay: Wnt1 subcutaneous mammary tumor model
# Description: as §2
# Tumor pieces cut to approximately 2 mm^3 in size were injected subcutaneously in female nude mice. Treatment was initiated approximately 9–10 days post-implantation of mice.
# Wnt1 model tumors = assay: Gene expression of Wnt-related genes in Wnt1 model tumors (mouse TLDA); type: in vivo; details: 7 days of drug treatment
# Description: as §4
# [8] = Gastrointestinal toxicity in preclinical studies; type: in vivo
# P-glycoprotein = system: P-glycoprotein; design: method as in PMID 22246237; details: cited from earlier work
# [9] = design: method as in PMID 22246237; details: cited from earlier work
# [10] = E7449 10, 30, 100 mg/kg + TMZ 50 mg/kg
smiles,measurement,setting,value
"O=c1[nH]nc2c3c(cccc13)N=C(CN1Cc3ccccc3C1)N2 [E7449, 8-(isoindolin-2-ylmethyl)-2,9-dihydro-3H-pyridazino[3,4,5-de]quinazolin-3-one]",IC50,TNKS1/2,50 to 120 nM
same,sensitivity of cell lines deficient in NHEJ repair,"[1]; KU70, PKCS, LIGIV deficient DT40",Resistance
same,effect of loss of POLQ on sensitivity,[1]; POLQ deficient DT40,no effect
same,sensitivity of DT40 cells lacking PARP expression,[1]; versus wild type DT40,significantly resistant
same,"growth of subcutaneous tumors, single agent","[2]; E7449 100 mg/kg or TMZ 50 mg/kg, oral once daily",moderately inhibited
same,"animal lethality, combination with TMZ",[2]; [10],No animal lethality occurred
same,"body weight, combination with TMZ",[2]; [10],body weight loss was observed in all 3 combination groups
same,"tumor growth inhibition, combination with TMZ","[2]; E7449 10, 30 and 100 mg/kg + TMZ 50 mg/kg, oral",significantly enhanced tumor growth inhibition
same,tolerability of combination with carboplatin,[3]; E7449 100 mg/kg + carboplatin 60 mg/kg,well tolerated with no signs of toxicity or significant body weight loss
same,"antitumor activity, E7449 started 1 day post-carboplatin",[3]; E7449 100 mg/kg once daily + carboplatin 60 mg/kg i.v.,closely resembled that observed with carboplatin alone
same,"antitumor activity, E7449 simultaneously with or prior to carboplatin",[3]; E7449 100 mg/kg once daily + carboplatin 60 mg/kg i.v. single dose,enhanced the antitumor activity of carboplatin
same,"antitumor activity, single agent","[3]; E7449 100 mg/kg oral once daily, carboplatin single i.v. dose 60 mg/kg",inactive; also recorded: No antitumor activity
same,tolerability,[4]; 30 or 100 mg/kg once daily for 28 days,well-tolerated without any significant body weight loss or deaths
same,"antitumor activity, single agent",[4]; 30 or 100 mg/kg oral once daily for 28 days,statistically significant antitumor activity
same,time of partial rebound of PARP activity,[5]; single dose 30 mg/kg,≤ 12 h
same,duration of significant PARP inhibition in tumor,[5]; single dose 100 mg/kg,at least 12 hours
same,time of recovery of PARP activity to basal levels,[5]; single dose 100 mg/kg,≤ 24 h
same,PARP inhibition in tumor at early time points,"[6]; single dose 1 mg/kg (lowest), 0.25 and 1 hour",significant PARP inhibition
same,duration of complete PARP inhibition,[6]; single dose 100 mg/kg,up to 12 hours
same,time of rebound in PARP activity,[6]; single dose 100 mg/kg,24 h
same,time of at least partial recovery of PARP activity to basal levels,[6]; single dose 1 and 3 mg/kg,≤ 6 h
same,effect on levels of β-catenin,DLD-1 cells,robust effect on levels of β-catenin was not observed
same,number of Wnt-related genes with significantly altered expression,SW480 cells,30 genes
same,effect of adding E7449 to E6201 on body weight loss,[7]; E7449 100 mg/kg + E6201 40 mg/kg,did not impact body weight loss
same,"tumor growth, single agent","[7]; E7449 100 mg/kg once daily, Wnt-C59 10 mg/kg once daily, E6201 40 mg/kg i.v. Q4Dx3",did not inhibit tumor growth; also recorded: No antitumor effect
same,"antitumor activity, combination of E7449 and E6201",[7]; E7449 100 mg/kg oral once daily + E6201 40 mg/kg i.v. Q4Dx3,Antitumor activity was enhanced; also recorded: synergistic inhibition of tumor growth
same,"tolerability (body weight loss), single agent","[7]; E7449 100 mg/kg, Wnt-C59 10 mg/kg once daily",well tolerated with minimal toxicity
same,"expression of Wnt-related genes CAR2, FZD9, LEF1, VIL1 in tumors",Wnt1 model tumors,"also altered in tumors from E7449-treated mice, albeit to a lesser extent"
same,gastrointestinal toxicity,[8],no gastrointestinal toxicity was observed
same,P-glycoprotein substrate,P-glycoprotein,not a substrate for P-glycoprotein
same,brain penetration,[9],brain penetrable
same,oral bioavailability,[9],orally bioavailable
